Experimental data: US20260315446A1, “ANTIFUNGAL COMPOUNDS AND USES THEREOF” (priority 2023, published 2026)

Key:
[1] = tested on: C. neoformans growth versus IL-2 in murine T cells; assay: Therapeutic index score (immunosuppressive fold change to antifungal fold change relative to FK506); design: species or system Cryptococcus neoformans; mouse; conditions: for Therapeutic Index Score: FK506 = 1.0
In short: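 TIscore = ratio of immunosuppressive fold change (IL-2, murine T cells) to antifungal fold change (C. neoformans), both relative to FK506; values >1.0 denote greater fungal specificity. Derived from in vitro fungal versus mammalian calcineurin inhibition data.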

[2] = tested on: T follicular helper (Tfh) cells; assay: In vivo immunosuppression, T follicular helper cells (Example 1); design: species or system mouse (C57BL/6); conditions: daily i.p., FK506 5 mg/kg or JH-FK-05 60 mg/kg; day 7
Experimental: Based on the in vitro evidence of reduced immunosuppressive activity of JH-FK-05, it was hypothesized that this reduction would translate into reduced immunosuppression in an in vivo model. The murine model for immunosuppression measures the T cell-dependent proliferation of two immune cell subtypes in response to immunization with an antigen. Animals were treated daily via intraperitoneal (i.p.) injection with vehicle, 5 mg/kg FK506, or 60 mg/kg JH-FK-05, beginning on day −1 and ending on day 7. […] On day 0, animals were immunized with NP-OVA to stimulate T cell-dependent signaling that would result in proliferation of T follicular helper (Tfh) cells and germinal center (GC) B cells. Animals were sacrificed on day 7, and the proportions of Tfh and GC B cells in the lymph nodes were measured. […]
Groups of 6 female C57BL/6 mice (Jackson Laboratory) were treated daily by intraperitoneal (i.p.) injection with about 100 μL vehicle, 5 mg/kg FK506, or 60 mg/kg JH-FK-05 beginning on day −1. […] Mice were treated and monitored daily until they were sacrificed on day 7. Draining lymph nodes were harvested on day 7, and the populations of T follicular helper cells and GC B cells were analyzed by flow cytometry. Tfh and GC B cells were measured from T Cell Receptor β (TCRβ^+) CD4^+CD44^hi cells and TCRβ^−CD19^+ cells, respectively.

C=CCC1C=C(C)CC(C)CC(OC)C2OC(O)(C(=O)C(=O)N3CCCCC3C(=O)OC(C(C)=CC3CCC(O)C(OC)C3)C(C)C(O)CC1=O)C(C)CC2OC (stereo not drawn) [FK506, reference compound]
Therapeutic index ([1]; Example 3, C. neoformans H99, FK506 = 1.0): 1.0
Therapeutic Index Score ([1]; Table 12, Example 4): 1.0
Therapeutic Index Score ([1]; Table 13, Example 4): 1.0
proliferation/presence of Tfh cells [2]: significantly reduced the proliferation

C=CC[C@@H]1/C=C(\C)C[C@H](C)C[C@H](OC)[C@H]2O[C@@](O)(C(=O)C(=O)N3CCCC[C@H]3C(=O)O[C@H](/C(C)=C/[C@@H]3CC[C@@H](O)[C@H](OC)C3)[C@H](C)[C@@H](O)C/C1=N/NC(=O)CC)[C@H](C)C[C@@H]2OC [JH-FK-02]
therapeutic index score (TIscore) ([1]; Example 1, C. neoformans MIC and IL-2 IC50, FK506 = 1.0): 9.7

CC[C@@H]1/C=C(\C)C[C@H](C)C[C@H](OC)[C@H]2O[C@@](O)(C(=O)C(=O)N3CCCC[C@H]3C(=O)O[C@H](/C(C)=C/[C@@H]3CC[C@@H](O)[C@H](OC)C3)[C@H](C)[C@@H](O)C/C1=N/NC(C)=O)[C@H](C)C[C@@H]2OC [JH-FK-05]
proliferation/presence of Tfh cells [2]: did not reduce the presence of either cell type and was statistically indistinguishable from the vehicle treatment
